According to patent US9427415B2, “Methods and compositions for modifying sensorial perception” (The Procter & Gamble Company, priority 2014, dated 2016):
Where a name gives a salt, the structure may show the parent alone. Read-outs that look alike come from different tables or passages of the source.

Experiments:
human TRPA1 = target: T1, human TRPA1 (Homo sapiens, UniProt O75762, K186N/R3C/R58T); test: Intracellular calcium (Fluo-4, FLIPR) activation of TRPA1 cells by GRAS compounds; assay type: cell-based; settings: relative to AITC 30 μM; for activation at 1000 µM / A1 activation, % of agonist value: 1 mM; for activation at 1000 µM / activation at 100 µM: read-out: A1 activation, % of agonist value;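 for all read-outs here: TRPA1-expressing cells, fluorescence read on a FLIPR Tetra (ex 488 nm, em 514 nm) every 2 s for 10 min after compound addition, baseline subtracted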
T1 construct: expressed in transfected cells; pcDNA3 control cells

TRPA1V1 = test: Intracellular calcium (Fluo-4, FLIPR) activation of TRPA1V1 cells (co-expressing TRPA1 and TRPV1) by GRAS compounds; assay type: cell-based, human; settings: relative to AITC 30 μM;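 note: HEK293 cells co-expressing TRPA1 and TRPV1, fluorescence read at 488/514 nm after baseline subtraction, recorded every 2 s over 10 min, ionomycin 10 µM and buffer as controls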

T1 sequence (O75762 whole entry R3C/R58T/K186N): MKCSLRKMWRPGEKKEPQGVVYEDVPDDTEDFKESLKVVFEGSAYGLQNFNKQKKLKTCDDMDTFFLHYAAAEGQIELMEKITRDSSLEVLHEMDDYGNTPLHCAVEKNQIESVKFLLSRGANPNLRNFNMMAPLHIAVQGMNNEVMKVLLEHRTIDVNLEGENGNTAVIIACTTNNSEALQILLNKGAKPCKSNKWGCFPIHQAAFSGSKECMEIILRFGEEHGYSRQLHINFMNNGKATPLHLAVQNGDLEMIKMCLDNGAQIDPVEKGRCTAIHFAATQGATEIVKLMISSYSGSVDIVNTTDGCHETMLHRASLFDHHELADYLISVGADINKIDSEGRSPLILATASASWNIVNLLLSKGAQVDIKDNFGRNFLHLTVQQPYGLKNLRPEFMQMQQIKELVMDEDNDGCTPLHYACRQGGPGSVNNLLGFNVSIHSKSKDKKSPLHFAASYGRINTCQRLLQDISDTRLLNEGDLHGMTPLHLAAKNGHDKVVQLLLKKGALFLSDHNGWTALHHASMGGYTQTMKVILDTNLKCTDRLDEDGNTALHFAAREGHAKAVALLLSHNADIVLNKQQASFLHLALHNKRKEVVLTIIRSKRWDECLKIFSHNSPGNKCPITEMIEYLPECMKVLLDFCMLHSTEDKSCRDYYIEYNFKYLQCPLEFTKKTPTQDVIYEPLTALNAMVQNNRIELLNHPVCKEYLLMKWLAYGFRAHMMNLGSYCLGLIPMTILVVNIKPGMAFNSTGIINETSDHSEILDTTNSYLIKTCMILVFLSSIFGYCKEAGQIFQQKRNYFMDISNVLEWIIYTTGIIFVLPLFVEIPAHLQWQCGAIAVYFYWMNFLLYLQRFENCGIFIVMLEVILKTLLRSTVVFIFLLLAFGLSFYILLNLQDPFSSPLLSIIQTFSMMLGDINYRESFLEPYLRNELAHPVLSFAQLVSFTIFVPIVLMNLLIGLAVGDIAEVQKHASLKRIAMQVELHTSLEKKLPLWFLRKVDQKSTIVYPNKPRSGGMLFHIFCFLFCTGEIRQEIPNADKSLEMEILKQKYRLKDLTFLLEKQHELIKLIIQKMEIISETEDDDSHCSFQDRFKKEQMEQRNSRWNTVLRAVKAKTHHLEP

| SMILES | activation at 1000 µM (human TRPA1; Table 1(c)) [%] | A1V1 activation, % of agonist value (TRPA1V1; Table 1(c), 1 mM) [%] | other results |
| --- | --- | --- | --- |
| CC=Cc1ccc(OC(C)=O)c(OC)c1 [Isoeugenyl acetate] | 57.6 | 68.34 | – |
| CC=Cc1ccc(OC(=O)Cc2ccccc2)c(OC)c1 [Isoeugenyl phenylacetate] | 59.1 | 58.40 | – |
| CC(C)N=C=S [Isopropyl isothiocyanate] | – | – | activation at 1000 µM (human TRPA1; Table 1(e)): 41.8%; A1V1 activation, % of agonist value (TRPA1V1; Table 1(e), 1 mM): 71.6% |
| CC(C)OC(=O)Cc1ccccc1 [Isopropyl phenylacetate] | – | – | activation at 1000 µM (human TRPA1; Table 1(d)): 80.2%; A1V1 activation, % of agonist value (TRPA1V1; Table 1(d), 1 mM): 60.9% |
| C=CCCCN=C=S [Isothiocyanic acid 4-penten-1-yl ester] | – | – | activation at 100 µM (human TRPA1; Table 1(c)): 51.6%; activation at 1000 µM (human TRPA1; Table 1(e)): 62.2%; A1V1 activation, % of agonist value (TRPA1V1; Table 1(c), 100 μM (*)): 47.3%; A1V1 activation, % of agonist value (TRPA1V1; Table 1(e), 1 mM): 74.8% |
| CC(=O)O[C@@H]1C[C@H](C)CC[C@H]1C(C)C [L-Menthyl acetate] | – | – | A1 activation, % of agonist value (human TRPA1; Table 1(e)): 44.88%; A1V1 activation, % of agonist value (TRPA1V1; Table 1(e), 1 mM): 60.47% |
| C=C(C)[C@@H]1CC=C(C=O)CC1 [L-Perillaldehyde] | – | 138.2 | A1 activation, % of agonist value (human TRPA1; Table 1(c)): 127.7% |
| CC1=CC(=O)[C@@H](C(C)C)CC1 [L-Piperitone] | – | – | A1 activation, % of agonist value (human TRPA1; Table 1(e)): 45%; A1V1 activation, % of agonist value (TRPA1V1; Table 1(e), 1 mM): 68.40% |
| C=CC(C)(O)CCC=C(C)C (centres unmarked) [Linalool] | – | – | activation at 1000 µM (human TRPA1; Table 1(d)): 52.6%; A1V1 activation, % of agonist value (TRPA1V1; Table 1(d), 1 mM): 20% |
| C=CC(C)(CCC=C(C)C)OC(=O)c1ccccc1 (centres unmarked) [Linalyl benzoate] | – | – | activation at 100 µM (human TRPA1; Table 1(c)): 44.4%; A1V1 activation, % of agonist value (TRPA1V1; Table 1(c), 100 μM (*)): 55.3% |
| CCC(=O)Oc1c(C)occc1=O [Maltol propionate] | – | 81.97 | A1 activation, % of agonist value (human TRPA1; Table 1(c)): 85.04% |
| CC(C)=CCCC(C)C=O (centres unmarked) [Melonal] | – | 57 | A1 activation, % of agonist value (human TRPA1; Table 1(c)): 52% |
| COC(=O)c1ccccc1OC [Methyl 2-methoxybenzoate] | 71.2 | 74.68 | – |
| CSSc1ccoc1C [Methyl 2-methyl-3-furyl disulfide] | 52.6 | 52 | – |
| CCCCCCC#CC(=O)OC [Methyl 2-nonynoate] | – | – | activation at 1000 µM (human TRPA1; Table 1(d)): 101%; A1V1 activation, % of agonist value (TRPA1V1; Table 1(d), 1 mM): 76.1% |
| COC(=O)CCCc1ccccc1 [Methyl 4-phenylbutyrate] | 58.4 | 50.30 | – |
| CNc1ccccc1C(=O)OC [Methyl N-methylanthranilate] | 83.6 | 86.81 | – |
| CCCCC/C=C\C/C=C\CCCCCCCC(=O)OC [Methyl linoleate] | – | – | activation at 1000 µM (human TRPA1; Table 1(e)): 31%; A1V1 activation, % of agonist value (TRPA1V1; Table 1(e), 1 mM): 81.7% |
| COC(=O)c1ccccc1NC=O [Methyl o-formamidobenzoate] | 75.4 | 75.64 | – |
| COC(=O)c1ccc(OC)cc1 [Methyl p-anisate] | 57.5 | 66.24 | – |
| C/C=C/C=C/C(=O)OC [Methyl sorbate] | 76 | 81.15 | activation at 1000 µM (human TRPA1; Table 1(e)): 46.4%; A1V1 activation, % of agonist value (TRPA1V1; Table 1(e), 1 mM): 83.3% |
| COC(=O)c1ccc(O)cc1 [Methylparaben] | 62 | 66.33 | – |
| COC(=O)c1ccccc1N(C)C [N,N-Dimethylanthranilic acid methyl ester] | 74.2 | 77.15 | – |
| CCCCCCCCCO [Nonyl alcohol] | 71.1 | 69.4 | – |
| COc1ccccc1C=CC=O [O-Methoxycinnamaldehyde] | – | 55.99 | A1 activation, % of agonist value (human TRPA1; Table 1(c)): 65.3% |
| CC(=O)OCc1ccccc1C [O-Methylbenzyl acetate] | – | 77.24 | A1 activation, % of agonist value (human TRPA1; Table 1(c)): 87.22% |
| Cc1ccccc1OC(=O)C(C)C [O-Tolyl isobutyrate] | – | 57.76 | A1 activation, % of agonist value (human TRPA1; Table 1(c)): 49.37% |
| CCCCCCCCOC(=O)c1ccco1 [Octyl 2-furoate] | – | – | activation at 1000 µM (human TRPA1; Table 1(d)): 54.3%; A1V1 activation, % of agonist value (TRPA1V1; Table 1(d), 1 mM): 40.60% |

| SMILES | activation at 1000 µM (human TRPA1; Table 1(c)) [%] | A1V1 activation, % of agonist value (TRPA1V1; Table 1(c), 1 mM) [%] | other results |
| --- | --- | --- | --- |
| S=C=NCCc1ccccc1 [Phenethyl isothiocyanate] | 92 | 81.46 | – |
| CC(C)C(=O)OCCOc1ccccc1 [Phenoxyethyl isobutyrate] | – | – | activation at 1000 µM (human TRPA1; Table 1(d)): 81%; A1V1 activation, % of agonist value (TRPA1V1; Table 1(d), 1 mM): 53.9% |
| CCC(=O)OCCOc1ccccc1 [Phenoxyethyl propionate] | 65.5 | 79.34 | – |
| CSCCCN=C=S [Propane, 1-isothiocyanato-3-(methylthio)-] | – | – | activation at 1000 µM (human TRPA1; Table 1(e)): 81.6%; A1V1 activation, % of agonist value (TRPA1V1; Table 1(e), 1 mM): 114.6% |
| CCCOC(=O)c1ccccc1 [Propyl benzoate] | – | – | activation at 1000 µM (human TRPA1; Table 1(d)): 40.7%; A1V1 activation, % of agonist value (TRPA1V1; Table 1(d), 1 mM): 25.7% |
| CC1=C(/C=C/C(C)=C/C=C/C(C)=C/CO)C(C)(C)CCC1 [Retinol] | 80 | 67.79 | – |
| C=C(C)CCC[C@H](C)CCO [Rhodinol] | – | – | activation at 1000 µM (human TRPA1; Table 1(d)): 116%; A1V1 activation, % of agonist value (TRPA1V1; Table 1(d), 1 mM): 78.75% |
| C=C(C)CCCC(C)CCOC(C)=O (centres unmarked) [Rhodinyl acetate] | – | 89.69 | A1 activation, % of agonist value (human TRPA1; Table 1(c)): 89.06% |
| C=C(C)CCC[C@H](C)CCOC(=O)CC(C)C [Rhodinyl isovalerate] | – | 48.29 | A1 activation, % of agonist value (human TRPA1; Table 1(c)): 54.92% |
| C=C(C)CCC[C@H](C)CCOC(=O)CC [Rhodinyl propionate] | – | 86.44 | A1 activation, % of agonist value (human TRPA1; Table 1(c)): 75.56% |
| CC1=C(C=O)C(C)(C)CC=C1 [Safranal] | – | 74.5 | A1 activation, % of agonist value (human TRPA1; Table 1(c)): 73% |
| O=Cc1ccccc1O [Salicylaldehyde] | 66.9 | 65.6 | – |
| Cc1c[nH]c2ccccc12 [Skatole] | 116 | 102.9 | activation at 100 µM (human TRPA1; Table 1(c)): 66.2%; A1V1 activation, % of agonist value (TRPA1V1; Table 1(c), 100 μM (*)): 71.4% |
| OC[C@H]1O[C@@](CO)(O[C@H]2O[C@H](CO)[C@@H](O)[C@H](O)[C@H]2O)[C@@H](O)[C@@H]1O [Sucrose] | 84.1 | 80.86 | – |
| CC1=CCCC(C)(C)C12CCC(C)O2 (centres unmarked) [Theaspirane] | – | 84 | A1 activation, % of agonist value (human TRPA1; Table 1(c)): 99% |
| CC/C=C/C=O [Trans-2-Pentenal] | 80.9 | 68.62 | – |
| CCCCCCCCC/C=C/C=O [Trans-2-dodecenal] | – | – | activation at 100 µM (human TRPA1; Table 1(c)): 79.1%; A1V1 activation, % of agonist value (TRPA1V1; Table 1(c), 100 μM (*)): 66% |
| COc1ccc(/C=C/C=O)cc1 [Trans-p-methoxy cinnamaldehyde] | – | – | activation at 1000 µM (human TRPA1; Table 1(e)): 58.8%; A1V1 activation, % of agonist value (TRPA1V1; Table 1(e), 1 mM): 75.99% |
| CC1=CC(C)C(C=O)CC1 (centres unmarked) [Trivertal] | – | 36.46 | A1 activation, % of agonist value (human TRPA1; Table 1(c)): 35.43% |
| C=C(C)[C@@H]1CCC2=CCC[C@@H](C)[C@]2(C)C1 [Valencene] | – | 66.32 | A1 activation, % of agonist value (human TRPA1; Table 1(c)): 61.97% |
| COc1ccc(C=O)cc1OC [Veratraldehyde] | 73.8 | 69.76 | – |
| CCCCCC(C=O)=Cc1ccccc1 [alpha-Amylcinnamaldehyde] | 86.6 | 82.7 | – |
| CC1=CCC(C(C)(C)OC=O)CC1 (stereo not drawn) [alpha-Terpinyl formate] | – | 71 | A1 activation, % of agonist value (human TRPA1; Table 1(c)): 82.2% |
| C=C1CC/C=C(\C)CC[C@@H]2[C@@H]1CC2(C)C [beta-Caryophyllene] | – | – | activation at 1000 µM (human TRPA1; Table 1(d)): 134%; A1V1 activation, % of agonist value (TRPA1V1; Table 1(d), 1 mM): 103.8% |
| C=CC(C)=CCC=C(C)C [beta-Ocimene] | 112 | 92 | – |
| CC/C=C\CCOC(=O)C/C=C\CC [cis-3-Hexenyl cis-3-hexenoate] | 107 | 97.4 | – |
| CC/C=C\CCOC(=O)CC(C)C [cis-3-Hexenyl isovalerate] | – | – | activation at 1000 µM (human TRPA1; Table 1(d)): 71.7%; A1V1 activation, % of agonist value (TRPA1V1; Table 1(d), 1 mM): 51.6% |
